Molecular target: endogenous wild-type p53 protein (Homo sapiens, UniProt P04637)
Experiment: Degradation of endogenous wild-type p53 protein in HeLa cells, Western blot analysis
Type: cell-based
Set-up: endogenous in cells
Method: HeLa cells were seeded in a 24-well plate at a cell density of 4×10^4 cells/well, and then cultured under conditions of 37° C. and 5 vol % CO2 for 16 hours.
After 16 hours from cell seeding, TIBC-CANDDY_MLN was added to HeLa cells as follows. […]
After electrophoresis, proteins were transferred to a PVDF membrane (Immobion™-P, Millipore) under conditions of 100 V and 2 hours using a tank-type blotting device and a transfer buffer (25 mM Tris-HCl, 195 mM glycine, 0.01% SDS, 15% methanol). […] Subsequently, the membrane was treated with a chemiluminescence reagent Immobilon™ Western (Millipore), and then chemiluminescence was detected using a lumino image analyzer LAS-3000 (FUJIFILM Corporation).

Sequence of endogenous wild-type p53 protein (P04637 whole entry): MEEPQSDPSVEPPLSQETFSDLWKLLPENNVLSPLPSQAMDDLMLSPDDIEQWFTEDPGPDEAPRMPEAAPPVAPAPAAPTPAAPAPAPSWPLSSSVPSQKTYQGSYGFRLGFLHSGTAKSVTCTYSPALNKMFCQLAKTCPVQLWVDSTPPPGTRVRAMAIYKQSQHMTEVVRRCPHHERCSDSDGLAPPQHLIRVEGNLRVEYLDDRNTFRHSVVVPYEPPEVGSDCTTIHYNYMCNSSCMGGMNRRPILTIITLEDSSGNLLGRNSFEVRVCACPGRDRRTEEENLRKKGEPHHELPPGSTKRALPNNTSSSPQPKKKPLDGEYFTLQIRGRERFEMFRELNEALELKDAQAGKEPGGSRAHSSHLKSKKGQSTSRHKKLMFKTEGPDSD

SMILES: CC(C)C[C@H](NC(=O)CNC(=O)c1cc(Cl)ccc1Cl)C(=O)NCCCCCCC(=O)Nc1ccc(C(=O)/C=C/c2ccc(I)cc2)cc1 [TIBC-CANDDY_MLN]
- amount of endogenous wild-type p53 protein (24 hours after addition): the amount of the endogenous wild-type p53 protein was reduced
- amount of wild-type p53 protein when MLN2238 is added together (both TIBC-CANDDY_MLN and MLN2238 added): the amount of the wild-type p53 protein was increased as compared with the control (DMSO)

From patent publication US20190369111A1, “MOLECULAR KINETICS EVALUATION METHOD AND SCREENING METHOD” (Tokyo University of Science Foundation, priority 2016, published 2019)
